The values that follow come from PubChem BioAssay AID2388 (Broad Institute, 2010).

This assay deals with S. cerevisiae CDRE-lacZ reporter, CaCl2, luminescence. As to the kind of experiment: blockers of CaCl2-induced CDRE-lacZ signaling – S. cerevisiae, luminescence, secondary, dose response (AID 2388).

The source made the active and inactive calls.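 Rule for the calls: active = fitted EC50 no more than ten times the top tested dose; inconclusive = flat fit with 30% to 70% inhibition, or a poor fit; inactive = EC50 beyond ten times the top tested dose.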 Where only a bound is given, the exact number is not on record here.

`CC1CCC(C(C)C)C(OC(=O)Cn2c(-c3ccc(Br)cc3)[n+](C)c3ccccc32)C1` (configuration not stated): the EC50 is > 18 µM (inactive).

As for `NC(=NCCCCCCN=C(N)/N=C(\N)Nc1ccc(Cl)cc1)/N=C(\N)Nc1ccc(Cl)cc1`, the EC50 is > 18 µM (inactive).
